Paper PMC6273433, “Design, Synthesis and Cytotoxicity of Novel Dihydroartemisinin-Coumarin Hybrids via Click Chemistry” (Molecules, 2016)
Where two headings read alike, the source gives them in different places.

Tests used:
[1] = system: HCT-116 (human colorectal cancer cell line); test: MTT cytotoxicity assay, HCT-116 under anoxia or normoxia; format: cell-based; conditions: for HCT-116 Value = IC50(normoxia)/IC50(anoxia): HCT-116, activity promotion under anoxia, >100 set as 100; for IC50: Homo sapiens
Description: (§1) We focused our attention on the cytotoxicity of the four series of newly-synthesized compounds (10a–e, 11a–e, 12a–e, and 13a–e) under normoxic or anoxic conditions.
(§2) The data was calculated by the Logit method and presented as IC50 values in Table 1.
(§3) All of the newly-synthesized compounds were screened for in vitro cytotoxicity by MTT assay. The exponentially-growing MRC-5, HCT-116, MDA-MB-231, and HT-29 cells were allowed to grow until 80% confluency, the culture medium was discarded, digested with trypsin, separated centrifugally, then fresh culture medium was added and blown gently into single-cell suspension. Then, the cell suspension was seeded into each well of 96-well microculture plates at a concentration of 1.5 × 10^3–3 × 10^3 cells/well.
(§4) The cells were incubated with 50 μL of 2 mg/mL MTT solution for 4 h in a humidified incubator. The supernatant was discarded, and the media were then replaced with 200 μL of dimethyl sulfoxide to dissolve the purple colored formazan crystals formed in the wells, and their absorbances were measured at 492 nm with a microplate reader (Synergy-HT, BioTek Instruments, Winooski, VT, USA); 200 μL DMSO was set as the blank control.
(§5) The anoxia condition was achieved by placing cells in a sealed hypoxia incubator chamber (Catalog Number 27310, Stemcell Technologies, Inc., Vancouver, BC, Canada) filled with 5% CO2 and 95% N2.

[2] = system: HT-29 (human colon carcinoma cell line, overexpresses high amounts of CA IX); test: MTT cytotoxicity assay, HT-29 under anoxia or normoxia; format: cell-based; conditions: for HT-29 Value = IC50(normoxia)/IC50(anoxia): HT-29, activity promotion under anoxia; for IC50: Homo sapiens
Description: as §1, §2, §3, §4, §5

[3] = system: MDA-MB-231 (human breast carcinoma cell line, CA IX negative); test: MTT cytotoxicity assay, MDA-MB-231 under anoxia or normoxia; format: cell-based; conditions: for IC50: Homo sapiens; for MDA-MB-231 Value = IC50(normoxia)/IC50(anoxia): MDA-MB-231, activity promotion under anoxia, >100 set as 100
Description: as §1, §2, §3, §4, §5

[4] = system: MRC-5 (human fetal lung fibroblast cells, normal lung cell); test: MTT cytotoxicity assay, MRC-5 normal cells; format: cell-based; conditions: MRC5, MRC-5, normoxia, 96 h MTT
Description: as §1, §2, §3, §4

[5] = MTT cytotoxicity assay, summary statements over all cell lines; format: cell-based; conditions: human, MRC-5, HCT-116, MDA-MB-231 and HT-29 cells; 96 h MTT assay, four cell lines, normoxic or anoxic
Description: as §1, §2, §3, §4, §5

[6] = HCT-116, anoxia 24 h then normoxia 72 h, MTT, read-out: IC50 HCT-116 Anoxia
[7] = HCT-116, normoxia, 96 h MTT, read-out: IC50 HCT-116 Normoxia
[8] = HT-29, anoxia 24 h then normoxia 72 h, MTT, read-out: IC50 HT-29 Anoxia
[9] = HT-29, normoxia, 96 h MTT, read-out: IC50 HT-29 Normoxia
[10] = MDA-MB-231, anoxia 24 h then normoxia 72 h, MTT, read-out: IC50 MDA-MB-231 Anoxia
[11] = MDA-MB-231, normoxia, 96 h MTT, read-out: IC50 MDA-MB-231 Normoxia

In the case of `Cc1cc(=O)oc2cc(OCc3cn(CCO[C@H]4O[C@@H]5O[C@@]6(C)CC[C@H]7[C@H](C)CC[C@@H]([C@H]4C)[C@@]57OO6)nn3)ccc12` [12a, 7-(1-(2-(10β-Dihydroartemisininoxy)ethyl)-1H-1,2,3-triazol-4-yl)methoxy-4-methyl-2H-chromen-2-one], the “HCT-116 Value = IC50(normoxia)/IC50(anoxia)” value [1] is reported as 1.50, the IC50 [1, 6] is reported as 18.3 µM and the IC50 [1, 7] is reported as 27.4 µM. For the same molecule, the “HT-29 Value = IC50(normoxia)/IC50(anoxia)” value [2] was 3.11, the IC50 [2, 8] was 10.6 µM and the IC50 [2, 9] was 33 µM. The IC50 [3, 10] was 47.7 µM, the IC50 [3, 11] was 125 µM and the “MDA-MB-231 Value = IC50(normoxia)/IC50(anoxia)” value [3] was 2.63. For the same molecule, the melting point was 79 to 81 °C and the IC50 [4] was 37.4 µM.

In the case of `C[C@H]1[C@@H](OCCn2cc(COc3ccc4c(C(F)(F)F)cc(=O)oc4c3)nn2)O[C@@H]2O[C@@]3(C)CC[C@H]4[C@H](C)CC[C@@H]1[C@@]24OO3` [12b, 7-(1-(2-(10β-Dihydroartemisininoxy)ethyl)-1H-1,2,3-triazol-4-yl)methoxy-4-trifluoromethyl-2H-chromen-2-one], the “HCT-116 Value = IC50(normoxia)/IC50(anoxia)” value [1] is reported as 0.35, the IC50 [1, 6] is reported as 24.4 µM and the IC50 [1, 7] is reported as 8.47 µM. For the same molecule, the “HT-29 Value = IC50(normoxia)/IC50(anoxia)” value [2] was 4.62, the IC50 [2, 8] was 2.46 µM and the IC50 [2, 9] was 11.3 µM. The IC50 [3, 10] was 14.7 µM, the IC50 [3, 11] was 40.1 µM and the “MDA-MB-231 Value = IC50(normoxia)/IC50(anoxia)” value [3] was 2.73. For the same molecule, the melting point was 77 to 79 °C and the IC50 [4] was 18.5 µM.

In the case of `Cc1c(C)c2ccc(OCc3cn(CCO[C@H]4O[C@@H]5O[C@@]6(C)CC[C@H]7[C@H](C)CC[C@@H]([C@H]4C)[C@@]57OO6)nn3)cc2oc1=O` [12c, 7-(1-(2-(10β-Dihydroartemisininoxy)ethyl)-1H-1,2,3-triazol-4-yl)methoxy-3,4-dimethyl-2H-chromen-2-one], the “HCT-116 Value = IC50(normoxia)/IC50(anoxia)” value [1] is reported as 1.33, the IC50 [1, 6] is reported as 12.1 µM and the IC50 [1, 7] is reported as 16 µM. The “HT-29 Value = IC50(normoxia)/IC50(anoxia)” value [2] was 6.04, the IC50 [2, 8] was 2.87 µM and the IC50 [2, 9] was 17.3 µM. The IC50 [3, 10] was 33.2 µM, the IC50 [3, 11] was over 100 µM and the melting point was 84 to 86 °C. For the same molecule, the IC50 [4] was 33.8 µM.

In the case of `Cc1c(Cl)c(=O)oc2cc(OCc3cn(CCO[C@H]4O[C@@H]5O[C@@]6(C)CC[C@H]7[C@H](C)CC[C@@H]([C@H]4C)[C@@]57OO6)nn3)ccc12` [12d, 3-Chloro-7-(1-(2-(10β-dihydroartemisininoxy)ethyl)-1H-1,2,3-triazol-4-yl)methoxy-4-methyl-2H-chromen-2-one], the “HCT-116 Value = IC50(normoxia)/IC50(anoxia)” value [1] is reported as 2.71, the IC50 [1, 6] is reported as 5.86 µM and the IC50 [1, 7] is reported as 15.9 µM. The “HT-29 Value = IC50(normoxia)/IC50(anoxia)” value [2] was 6.16, the IC50 [2, 8] was 3.63 µM and the IC50 [2, 9] was 22.4 µM. The IC50 [3, 10] was 43.5 µM, the IC50 [3, 11] was over 100 µM and the “MDA-MB-231 Value = IC50(normoxia)/IC50(anoxia)” value [3] was 2.30. The melting point was 76 to 78 °C and the IC50 [4] was 62.3 µM.

With `CCOC(=O)c1cc2ccc(OCc3cn(CCO[C@H]4O[C@@H]5O[C@@]6(C)CC[C@H]7[C@H](C)CC[C@@H]([C@H]4C)[C@@]57OO6)nn3)cc2oc1=O` [12e, Ethyl 2-oxo-7-(1-(2-(10β-dihydroartemisininoxy)ethyl)-1H-1,2,3-triazol-4-yl)methoxy-2H-chromene-3-carboxylate] the “HCT-116 Value = IC50(normoxia)/IC50(anoxia)” value [1] was 1.62, the IC50 [1, 6] was 35.7 µM and the IC50 [1, 7] was 57.9 µM. For the same molecule, the “HT-29 Value = IC50(normoxia)/IC50(anoxia)” value [2] was 1.88, the IC50 [2, 8] was 20.8 µM and the IC50 [2, 9] was 39 µM. For the same molecule, the IC50 [3, 10] was 65.1 µM, the IC50 [3, 11] was over 100 µM and the “MDA-MB-231 Value = IC50(normoxia)/IC50(anoxia)” value [3] was 1.54. For the same molecule, the melting point was 71 to 73 °C and the IC50 [4] was 69.5 µM.

With `Cc1cc(=O)oc2cc(OCc3cn(CCCO[C@H]4O[C@@H]5O[C@@]6(C)CC[C@H]7[C@H](C)CC[C@@H]([C@H]4C)[C@@]57OO6)nn3)ccc12` [13a, 7-(1-(3-(10β-Dihydroartemisininoxy)propyl)-1H-1,2,3-triazol-4-yl)methoxy-4-methyl-2H-chromen-2-one] the “HCT-116 Value = IC50(normoxia)/IC50(anoxia)” value [1] was 2.95, the IC50 [1, 6] was 9.65 µM and the IC50 [1, 7] was 28.5 µM. For the same molecule, the “HT-29 Value = IC50(normoxia)/IC50(anoxia)” value [2] was 4.30, the IC50 [2, 8] was 6.4 µM and the IC50 [2, 9] was 27.5 µM. For the same molecule, the IC50 [3, 10] was 36.1 µM, the IC50 [3, 11] was over 100 µM and the “MDA-MB-231 Value = IC50(normoxia)/IC50(anoxia)” value [3] was 2.77. For the same molecule, the melting point was 75 to 77 °C and the IC50 [4] was 26.2 µM.

For `C[C@H]1[C@@H](OCCCn2cc(COc3ccc4c(C(F)(F)F)cc(=O)oc4c3)nn2)O[C@@H]2O[C@@]3(C)CC[C@H]4[C@H](C)CC[C@@H]1[C@@]24OO3` [13b, 7-(1-(3-(10β-Dihydroartemisininoxy)propyl)-1H-1,2,3-triazol-4-yl)methoxy-4-trifluoromethyl-2H-chromen-2-one], the “HCT-116 Value = IC50(normoxia)/IC50(anoxia)” value [1] was 7.43, the IC50 [1, 6] was 2.75 µM and the IC50 [1, 7] was 20.4 µM. The “HT-29 Value = IC50(normoxia)/IC50(anoxia)” value [2] was 3.74, the IC50 [2, 8] was 5.31 µM and the IC50 [2, 9] was 19.8 µM. For the same molecule, the IC50 [3, 10] was 26.6 µM, the IC50 [3, 11] was over 100 µM and the “MDA-MB-231 Value = IC50(normoxia)/IC50(anoxia)” value [3] was 3.76. It also gave a melting point of 69 to 71 °C and an IC50 [4] of 21.4 µM.

For `Cc1c(C)c2ccc(OCc3cn(CCCO[C@H]4O[C@@H]5O[C@@]6(C)CC[C@H]7[C@H](C)CC[C@@H]([C@H]4C)[C@@]57OO6)nn3)cc2oc1=O` [13c, 7-(1-(3-(10β-Dihydroartemisininoxy)propyl)-1H-1,2,3-triazol-4-yl)methoxy-3,4-dimethyl-2H-chromen-2-one], the “HCT-116 Value = IC50(normoxia)/IC50(anoxia)” value [1] was 8.95, the IC50 [1, 6] was 2.13 µM and the IC50 [1, 7] was 19.1 µM. For the same molecule, the “HT-29 Value = IC50(normoxia)/IC50(anoxia)” value [2] was 4.23, the IC50 [2, 8] was 2.8 µM and the IC50 [2, 9] was 11.9 µM. For the same molecule, the IC50 [3, 10] was 4.17 µM, the IC50 [3, 11] was 59.6 µM and the “MDA-MB-231 Value = IC50(normoxia)/IC50(anoxia)” value [3] was 14.29. It also gave a melting point of 68 to 70 °C and an IC50 [4] of 27.8 µM.

For `Cc1c(Cl)c(=O)oc2cc(OCc3cn(CCCO[C@H]4O[C@@H]5O[C@@]6(C)CC[C@H]7[C@H](C)CC[C@@H]([C@H]4C)[C@@]57OO6)nn3)ccc12` [13d, 3-Chloro-7-(1-(3-(10β-Dihydroartemisininoxy)propyl)-1H-1,2,3-triazol-4-yl)methoxy-4-methyl-2H-chromen-2-one], the “HCT-116 Value = IC50(normoxia)/IC50(anoxia)” value [1] was 41.38, the IC50 [1, 6] was 0.43 µM and the IC50 [1, 7] was 18 µM. The “HT-29 Value = IC50(normoxia)/IC50(anoxia)” value [2] was 1.87, the IC50 [2, 8] was 4.68 µM and the IC50 [2, 9] was 8.76 µM. The IC50 [3, 10] was 3.62 µM, the IC50 [3, 11] was 72.5 µM and the “MDA-MB-231 Value = IC50(normoxia)/IC50(anoxia)” value [3] was 20.03. For the same molecule, the melting point was 71 to 73 °C and the IC50 [4] was 31.5 µM.

For `CCOC(=O)c1cc2ccc(OCc3cn(CCCO[C@H]4O[C@@H]5O[C@@]6(C)CC[C@H]7[C@H](C)CC[C@@H]([C@H]4C)[C@@]57OO6)nn3)cc2oc1=O` [13e, Ethyl 2-oxo-7-(1-(3-(10β-dihydroartemisininoxy)propyl)-1H-1,2,3-triazol-4-yl)methoxy-2H-chromene-3-carboxylate], the “HCT-116 Value = IC50(normoxia)/IC50(anoxia)” value [1] was 3.65, the IC50 [1, 6] was 17.6 µM and the IC50 [1, 7] was 64.3 µM. The “HT-29 Value = IC50(normoxia)/IC50(anoxia)” value [2] was 2.22, the IC50 [2, 8] was 7.09 µM and the IC50 [2, 9] was 15.7 µM. For the same molecule, the IC50 [3, 10] was 25.9 µM, the IC50 [3, 11] was 53.7 µM and the “MDA-MB-231 Value = IC50(normoxia)/IC50(anoxia)” value [3] was 2.07. The melting point was 79 to 81 °C and the IC50 [4] was 27.2 µM.

Work on `CC(=O)Nc1nnc(S(N)(=O)=O)s1` [AAZ, acetazolamide] yielded an IC50 at 96 h [5] of over 100 µM.
